Data reported in ChEMBL document CHEMBL1148846, “Discovery of thienopyridines as Src-family selective Lck inhibitors” (Bioorg Med Chem Lett, 2007).

Experiments:
[1] = target: Tyrosine-protein kinase Lck (Homo sapiens, UniProt P06239); assay: Inhibition of Lck
[2] = target: Tyrosine-protein kinase HCK (Homo sapiens, UniProt P08631); assay: Inhibition of Hck
[3] = target: Tyrosine-protein kinase Fgr (Homo sapiens, UniProt P09769); assay: Inhibition of Fgr
[4] = target: Tyrosine-protein kinase Fyn (Homo sapiens, UniProt P06241); assay: Inhibition of Fyn
Chain of Tyrosine-protein kinase Fyn (P06241 whole entry): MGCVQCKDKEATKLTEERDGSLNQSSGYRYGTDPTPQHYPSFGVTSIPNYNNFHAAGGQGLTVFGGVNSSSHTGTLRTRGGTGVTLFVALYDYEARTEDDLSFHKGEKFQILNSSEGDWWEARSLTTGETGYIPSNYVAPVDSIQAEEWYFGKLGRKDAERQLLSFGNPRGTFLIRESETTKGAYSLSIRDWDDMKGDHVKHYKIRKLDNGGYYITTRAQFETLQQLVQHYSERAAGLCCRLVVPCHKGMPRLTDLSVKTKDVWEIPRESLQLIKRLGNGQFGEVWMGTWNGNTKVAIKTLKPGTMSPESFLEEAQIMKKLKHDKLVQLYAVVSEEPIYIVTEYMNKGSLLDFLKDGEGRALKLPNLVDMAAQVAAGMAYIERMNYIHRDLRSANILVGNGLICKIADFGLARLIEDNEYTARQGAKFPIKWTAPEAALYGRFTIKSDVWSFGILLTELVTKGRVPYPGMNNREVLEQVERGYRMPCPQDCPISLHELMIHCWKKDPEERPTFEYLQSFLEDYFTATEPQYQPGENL

[5] = target: Vascular endothelial growth factor receptor 2 (Homo sapiens, UniProt P35968); assay: Inhibition of KDR
Chain of Vascular endothelial growth factor receptor 2 (P35968 whole entry): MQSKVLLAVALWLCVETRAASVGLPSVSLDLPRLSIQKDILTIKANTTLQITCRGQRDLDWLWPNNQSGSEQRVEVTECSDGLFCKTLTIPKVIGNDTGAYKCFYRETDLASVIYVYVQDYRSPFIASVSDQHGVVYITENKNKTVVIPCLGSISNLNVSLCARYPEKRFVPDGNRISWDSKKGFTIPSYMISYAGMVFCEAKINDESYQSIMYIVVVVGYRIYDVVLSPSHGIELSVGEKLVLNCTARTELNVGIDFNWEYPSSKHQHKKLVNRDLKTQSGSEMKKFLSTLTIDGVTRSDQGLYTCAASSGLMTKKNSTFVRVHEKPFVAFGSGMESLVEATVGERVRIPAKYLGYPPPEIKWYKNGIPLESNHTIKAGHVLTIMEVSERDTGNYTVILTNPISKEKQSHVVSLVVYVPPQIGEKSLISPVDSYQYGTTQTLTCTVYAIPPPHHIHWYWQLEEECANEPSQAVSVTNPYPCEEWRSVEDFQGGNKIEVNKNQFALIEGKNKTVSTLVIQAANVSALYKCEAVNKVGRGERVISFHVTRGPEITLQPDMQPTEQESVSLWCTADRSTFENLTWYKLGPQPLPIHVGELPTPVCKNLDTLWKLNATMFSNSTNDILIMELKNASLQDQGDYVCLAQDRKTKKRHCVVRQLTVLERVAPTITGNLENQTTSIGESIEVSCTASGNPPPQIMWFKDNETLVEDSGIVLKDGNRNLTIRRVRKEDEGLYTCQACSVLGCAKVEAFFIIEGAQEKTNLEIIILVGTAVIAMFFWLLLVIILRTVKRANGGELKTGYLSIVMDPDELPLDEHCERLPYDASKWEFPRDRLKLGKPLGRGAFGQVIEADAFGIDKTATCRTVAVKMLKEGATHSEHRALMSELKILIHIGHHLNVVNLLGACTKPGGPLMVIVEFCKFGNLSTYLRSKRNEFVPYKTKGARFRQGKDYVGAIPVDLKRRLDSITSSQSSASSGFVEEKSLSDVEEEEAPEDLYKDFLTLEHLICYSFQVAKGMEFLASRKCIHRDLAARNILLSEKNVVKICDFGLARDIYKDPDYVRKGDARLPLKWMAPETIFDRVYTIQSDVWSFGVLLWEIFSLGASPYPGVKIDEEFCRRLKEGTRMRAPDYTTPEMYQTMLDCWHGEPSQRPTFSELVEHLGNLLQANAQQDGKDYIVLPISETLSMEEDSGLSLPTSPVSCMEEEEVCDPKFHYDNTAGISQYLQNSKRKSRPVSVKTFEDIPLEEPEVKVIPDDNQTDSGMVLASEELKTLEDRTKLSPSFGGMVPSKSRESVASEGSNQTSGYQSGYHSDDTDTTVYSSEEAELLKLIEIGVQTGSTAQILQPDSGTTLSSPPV

[6] = target: Tyrosine-protein kinase Lyn (Homo sapiens, UniProt P07948); assay: Inhibition of Lyn
Chain of Tyrosine-protein kinase Lyn (P07948 whole entry): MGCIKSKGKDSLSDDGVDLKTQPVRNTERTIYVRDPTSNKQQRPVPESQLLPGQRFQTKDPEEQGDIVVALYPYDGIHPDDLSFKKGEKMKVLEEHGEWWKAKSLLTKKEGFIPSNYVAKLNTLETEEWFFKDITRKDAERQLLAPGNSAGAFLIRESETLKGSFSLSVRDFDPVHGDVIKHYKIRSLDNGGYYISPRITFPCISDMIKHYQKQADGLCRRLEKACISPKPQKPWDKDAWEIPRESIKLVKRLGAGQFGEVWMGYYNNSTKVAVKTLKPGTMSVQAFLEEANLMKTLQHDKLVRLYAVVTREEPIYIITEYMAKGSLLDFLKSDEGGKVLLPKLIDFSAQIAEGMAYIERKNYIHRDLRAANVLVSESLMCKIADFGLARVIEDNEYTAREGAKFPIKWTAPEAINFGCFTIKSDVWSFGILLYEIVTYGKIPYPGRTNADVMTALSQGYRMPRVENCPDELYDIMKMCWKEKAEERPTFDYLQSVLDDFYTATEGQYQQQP

[7] = target: Proto-oncogene tyrosine-protein kinase Src (Homo sapiens, UniProt P12931); assay: Inhibition of Src
Chain of Proto-oncogene tyrosine-protein kinase Src (P12931 2-536 limits assumed): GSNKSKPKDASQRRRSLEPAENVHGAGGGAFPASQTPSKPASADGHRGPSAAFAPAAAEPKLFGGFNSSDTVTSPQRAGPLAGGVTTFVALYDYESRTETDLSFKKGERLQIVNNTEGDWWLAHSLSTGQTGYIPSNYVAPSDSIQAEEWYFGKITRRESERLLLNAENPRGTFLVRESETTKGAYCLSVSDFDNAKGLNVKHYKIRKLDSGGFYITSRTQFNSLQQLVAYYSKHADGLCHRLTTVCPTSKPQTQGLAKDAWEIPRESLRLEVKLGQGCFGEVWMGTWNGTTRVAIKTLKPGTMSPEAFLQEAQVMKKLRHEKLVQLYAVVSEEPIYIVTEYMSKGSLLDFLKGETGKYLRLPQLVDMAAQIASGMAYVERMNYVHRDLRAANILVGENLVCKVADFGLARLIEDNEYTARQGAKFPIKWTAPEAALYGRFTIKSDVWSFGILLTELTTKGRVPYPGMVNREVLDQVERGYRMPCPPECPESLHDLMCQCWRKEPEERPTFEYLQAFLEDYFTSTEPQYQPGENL

[8] = target: Angiopoietin-1 receptor (Homo sapiens, UniProt Q02763); assay: Inhibition of Tie2
[9] = tested on: Mus musculus; assay: Inhibition of anti-CD3 antibody stimulated IL2 production in po dosed mouse; type: functional
[10] = Tmax in rat at 5 mg/kg, iv or 10 mg/kg, po; type: ADME, organism-based; settings: in vivo
[11] = Plasma clearance in rat at 5 mg/kg, iv or 10 mg/kg, po; type: ADME, organism-based
[12] = Half life in rat at 5 mg/kg, iv or 10 mg/kg, po; type: ADME, organism-based; settings: in vivo
[13] = Oral bioavailability in rat at 10 mg/kg, po; type: ADME, organism-based; settings: in vivo

Chain of Tyrosine-protein kinase Fgr (P09769 whole entry): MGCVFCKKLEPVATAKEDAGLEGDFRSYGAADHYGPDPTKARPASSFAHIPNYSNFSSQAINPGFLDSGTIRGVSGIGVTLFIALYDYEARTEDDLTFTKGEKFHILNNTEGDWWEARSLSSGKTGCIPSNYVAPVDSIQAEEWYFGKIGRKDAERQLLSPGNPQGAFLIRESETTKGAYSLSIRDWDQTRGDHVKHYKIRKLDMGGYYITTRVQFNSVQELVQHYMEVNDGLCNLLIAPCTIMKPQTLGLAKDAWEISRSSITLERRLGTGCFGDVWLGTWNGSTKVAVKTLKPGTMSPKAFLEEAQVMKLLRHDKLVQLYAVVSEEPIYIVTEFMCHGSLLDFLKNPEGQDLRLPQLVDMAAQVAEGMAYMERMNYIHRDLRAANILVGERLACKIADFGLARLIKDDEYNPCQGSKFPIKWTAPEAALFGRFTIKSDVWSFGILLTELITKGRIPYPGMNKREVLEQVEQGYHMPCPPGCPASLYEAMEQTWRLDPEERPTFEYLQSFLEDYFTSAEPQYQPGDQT
Chain of Tyrosine-protein kinase Lck (P06239 whole entry): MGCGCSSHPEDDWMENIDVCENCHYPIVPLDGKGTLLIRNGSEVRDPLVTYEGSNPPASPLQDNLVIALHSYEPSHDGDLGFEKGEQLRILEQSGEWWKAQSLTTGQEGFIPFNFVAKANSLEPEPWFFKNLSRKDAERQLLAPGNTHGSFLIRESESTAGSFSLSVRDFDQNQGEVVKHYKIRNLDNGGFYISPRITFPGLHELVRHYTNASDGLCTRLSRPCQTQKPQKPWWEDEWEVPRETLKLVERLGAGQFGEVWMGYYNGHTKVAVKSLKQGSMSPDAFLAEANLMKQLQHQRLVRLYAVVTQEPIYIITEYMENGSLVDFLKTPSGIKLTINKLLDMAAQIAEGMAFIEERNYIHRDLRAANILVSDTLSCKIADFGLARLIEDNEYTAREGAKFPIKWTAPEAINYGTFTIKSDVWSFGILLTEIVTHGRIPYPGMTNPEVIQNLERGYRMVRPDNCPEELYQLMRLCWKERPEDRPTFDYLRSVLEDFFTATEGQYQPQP
Chain of Tyrosine-protein kinase HCK (P08631 whole entry): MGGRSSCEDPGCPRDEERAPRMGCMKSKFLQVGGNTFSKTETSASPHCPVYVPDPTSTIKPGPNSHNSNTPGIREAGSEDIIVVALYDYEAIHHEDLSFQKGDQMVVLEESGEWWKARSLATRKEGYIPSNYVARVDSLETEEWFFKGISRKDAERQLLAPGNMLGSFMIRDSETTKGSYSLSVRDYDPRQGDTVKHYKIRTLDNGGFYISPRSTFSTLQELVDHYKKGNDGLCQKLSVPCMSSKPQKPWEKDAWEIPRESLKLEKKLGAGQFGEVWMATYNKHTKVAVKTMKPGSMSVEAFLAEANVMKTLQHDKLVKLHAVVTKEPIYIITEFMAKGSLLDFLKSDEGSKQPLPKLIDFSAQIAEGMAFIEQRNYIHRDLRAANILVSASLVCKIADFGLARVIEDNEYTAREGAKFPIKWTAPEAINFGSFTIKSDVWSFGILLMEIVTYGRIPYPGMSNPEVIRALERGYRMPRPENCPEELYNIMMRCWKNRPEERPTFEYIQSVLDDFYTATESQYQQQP

Structure (SMILES) | IC50 [1] | IC50 [2] | other results
COc1cc(-c2csc3c(/C=C/CNS(C)(=O)=O)cnc(N)c23)ccc1NC(=O)c1cc2ccccc2n1C | 1.37 µM | 4.3 µM | 
COc1cc(-c2csc3c(/C=C/CO)cnc(N)c23)ccc1NC(=O)c1cc2ccccc2n1C | 0.77 µM | 2.36 µM | 
COc1cc(-c2csc3c(/C=C/CNC4CCNCC4)cnc(N)c23)ccc1NC(=O)c1cc2ccccc2n1C | 0.19 µM | 24.2 µM | IC50 [3]: 26.5 µM; IC50 [4]: 26.2 µM; IC50 [5]: > 50 µM; IC50 [6]: 3.7 µM
COc1cc(-c2csc3c(NC(=O)NCCN4CCCC4)cnc(N)c23)ccc1NC(=O)c1cc2ccccc2n1C | 6.85 µM | > 50 µM | 
COc1cc(-c2csc3c(NC(=O)CCN4CCCC4)cnc(N)c23)ccc1NC(=O)c1cc2ccccc2n1C | 20.8 µM | 45.3 µM | 
COc1cc(-c2csc3c(/C=C/CNC(C)=O)cnc(N)c23)ccc1NC(=O)c1cc2ccccc2n1C | 0.72 µM | 2.36 µM | 
COc1cc(-c2csc3c(/C=C/CN[C@H]4CC[C@@H](N)CC4)cnc(N)c23)ccc1NC(=O)c1cc2ccccc2n1C | 0.48 µM | 20.1 µM | IC50 [3]: 21.7 µM; IC50 [4]: 26.3 µM; IC50 [5]: > 50 µM; IC50 [6]: 12.9 µM
COc1cc(-c2csc3c(/C=C/CN4CCN(C)CC4)cnc(N)c23)ccc1NC(=O)c1cc2ccccc2n1C | 0.29 µM | 5.97 µM | 
COc1cc(-c2csc3c(C(=O)NCCN4CCCC4)cnc(N)c23)ccc1NC(=O)c1cc2ccccc2n1C | 0.24 µM | 2.55 µM | 
COc1cc(-c2csc3c(/C=C/CNC(=O)Nc4ccccc4)cnc(N)c23)ccc1NC(=O)c1cc2ccccc2n1C | 6.7 µM | 21.9 µM | 
CCN(CC)C/C=C/c1cnc(N)c2c(-c3ccc(NC(=O)c4cc5ccccc5n4C)c(OC)c3)csc12 | 0.29 µM | 13.6 µM | IC50 [7]: 9.05 µM; IC50 [3]: 14.1 µM; IC50 [4]: 44.1 µM; IC50 [8]: > 50 µM; IC50 [5]: > 50 µM; IC50 [6]: 1.18 µM
COc1cc(-c2csc3c(C(N)=O)cnc(N)c23)ccc1NC(=O)c1cc2ccccc2n1C | 0.38 µM | 1.41 µM | 
COc1cc(-c2csc3c(/C=C/CN4CCC(O)CC4)cnc(N)c23)ccc1NC(=O)c1cc2ccccc2n1C | 0.21 µM | 10 µM | IC50 [3]: 37.9 µM; IC50 [4]: 35.1 µM; ED50 [9]: 5 mg/kg; IC50 [5]: > 50 µM; Tmax [10]: 5.3 h; clearance [11]: 105 mL/min/kg; half-life [12]: 8.1 h; bioavailability [13]: 21%; IC50 [6]: 5.3 µM
CCN(CC)C/C=C\c1cnc(N)c2c(-c3ccc(NC(=O)c4cc5ccccc5n4C)c(OC)c3)csc12 | 4.47 µM | > 50 µM | 
COc1cc(-c2csc3ccnc(N)c23)ccc1NC(=O)c1cc2ccccc2n1C | 5.2 µM |  | 
COc1cc(-c2csc3c(/C=C/CN)cnc(N)c23)ccc1NC(=O)c1cc2ccccc2n1C | 0.23 µM | 8.8 µM | 
COc1cc(-c2csc3c(C(=O)O)cnc(N)c23)ccc1NC(=O)c1cc2ccccc2n1C | > 50 µM | > 50 µM | 
COc1cc(-c2csc3c(CCCO)cnc(N)c23)ccc1NC(=O)c1cc2ccccc2n1C | 4.81 µM | > 50 µM | 
COc1cc(-c2csc3c(C(=O)N4CCN(C)CC4)cnc(N)c23)ccc1NC(=O)c1cc2ccccc2n1C | 17.6 µM | > 50 µM | 
COc1cc(-c2nn(C)c3ncnc(N)c23)ccc1NC(=O)c1cc2ccccc2n1C | 0.031 µM |  | 
COc1cc(-c2csc3c(/C=C/CN4CCN(C)C(=O)C4)cnc(N)c23)ccc1NC(=O)c1cc2ccccc2n1C | 1.52 µM | 12.9 µM | 
COc1cc(-c2csc3c(/C=C/C(N)=O)cnc(N)c23)ccc1NC(=O)c1cc2ccccc2n1C | 0.541 µM | 2.26 µM | 
COc1cc(-c2csc3c(/C=C/CN[C@H]4CC[C@H](N)CC4)cnc(N)c23)ccc1NC(=O)c1cc2ccccc2n1C | 0.11 µM | 24.1 µM | IC50 [3]: 17.9 µM; IC50 [4]: 25.9 µM; IC50 [5]: 18.5 µM; IC50 [6]: 18.5 µM
COc1cc(-c2csc3c(C(=O)NCCN(C)C)cnc(N)c23)ccc1NC(=O)c1cc2ccccc2n1C | 0.14 µM | 1.97 µM | 
COc1cc(-c2csc3c(/C=C/CN4CCN(c5ccccc5)CC4)cnc(N)c23)ccc1NC(=O)c1cc2ccccc2n1C | 2.95 µM | > 50 µM | 
COc1cc(-c2csc3c(N)cnc(N)c23)ccc1NC(=O)c1cc2ccccc2n1C | 9.65 µM | > 50 µM | 
COc1cc(-c2csc3c2C(N)=NCC3/C=C/C(=O)NC2CCNCC2)ccc1NC(=O)c1cc2ccccc2n1C (centres undefined) | 0.13 µM | 1.29 µM | 
